Values of other authors, collected in patent US12070034B2, “Synergistic herbicidal combinations” (UPL LTD, priority 2017, dated 2024).

Details: acid form, before neutralisation with ammonium phosphate dibasic

| SMILES | solubility |
| --- | --- |
| O=C(O)COc1ccc(Cl)cc1Cl [2,4-D acid] | 311 mg/I |
| Nc1c(Cl)c(Cl)nc(C(=O)O)c1Cl [Picloram acid] | 560 mg/I |
